Results as given in US20240336657A1, “G-ALPHA-S PEPTIDE INHIBITORS AND USES THEREOF” (The Regents of the University of California, priority 2021, published 2024).
Positions of bridges follow the written chain, without caps; N, C: chain ends. Non-standard residues stand in square brackets, D forms with d. Residues, ends and D or L forms follow the SMILES beside them.

Tests used:
Assay type in all cases: biochemical
[1] = molecular target: T1, adenylyl cyclase (Homo sapiens, UniProt O95622+Q08462); test: Forskolin-mediated, Gαs-independent adenylyl cyclase activation
T1 construct: C1 domain (residues 442-658, VC1) of human ADCY5; C2 domain (residues 871-1082, IIC2) of human ADCY2; made in house; host or cells: Escherichia coli BL21(DE3)
T1 sequence (O95622 442-658): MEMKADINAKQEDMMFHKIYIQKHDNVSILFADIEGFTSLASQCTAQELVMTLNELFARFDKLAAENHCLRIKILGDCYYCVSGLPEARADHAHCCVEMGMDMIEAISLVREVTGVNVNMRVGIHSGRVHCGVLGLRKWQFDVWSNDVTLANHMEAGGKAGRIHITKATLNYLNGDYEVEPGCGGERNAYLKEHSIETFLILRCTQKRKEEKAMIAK
T1 sequence (Q08462 871-1082): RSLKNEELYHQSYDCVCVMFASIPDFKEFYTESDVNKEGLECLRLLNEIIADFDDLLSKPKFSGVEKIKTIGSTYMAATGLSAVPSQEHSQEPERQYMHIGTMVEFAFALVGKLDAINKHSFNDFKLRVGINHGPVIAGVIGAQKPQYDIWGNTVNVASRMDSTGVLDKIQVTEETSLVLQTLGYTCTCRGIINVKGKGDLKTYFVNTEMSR

[2] = molecular target: Gαs (Homo sapiens, UniProt P63092); test: GTPγS binding assay ([35S]GTPγS); design: made in house; host or cells: Escherichia coli BL21(DE3)
Sequence of Gαs (P63092 1-380 isoform P63092-2): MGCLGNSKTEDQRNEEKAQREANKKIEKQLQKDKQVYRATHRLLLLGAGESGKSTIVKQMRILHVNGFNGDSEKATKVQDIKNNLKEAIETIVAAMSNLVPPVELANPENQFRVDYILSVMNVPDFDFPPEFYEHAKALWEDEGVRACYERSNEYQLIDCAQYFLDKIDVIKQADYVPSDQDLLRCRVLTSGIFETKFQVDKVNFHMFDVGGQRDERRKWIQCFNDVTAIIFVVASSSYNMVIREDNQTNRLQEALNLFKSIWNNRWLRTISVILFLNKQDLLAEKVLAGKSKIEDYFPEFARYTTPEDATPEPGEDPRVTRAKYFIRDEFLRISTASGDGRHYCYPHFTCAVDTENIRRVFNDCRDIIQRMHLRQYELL
Protocol: Gα proteins were diluted to 10 μM with dilution buffer (20 mM HEPES 7.5, 150 mM NaCl, 1 mM MgCl2, 2 mM DTT, and 20 μM GDP) and incubated with 5× stocks of cyclic peptides at room temperature for 2 hours. GTPγS binding was initiated by mixing with the reaction buffer at room temperature (50 nM [35S]GTPγS and 100 μM GTPγS in dilution buffer) at room temperature. At various time points, 10 μL of the sample was removed and mixed with 390 μL of ice-cold wash buffer (20 mM HEPES 7.5, 150 mM NaCl, 20 mM MgCl2). The mixture was filtered through a mixed cellulose membrane (25 mm, 0.22 μm). The membrane was washed by ice-cold wash buffer (500 μL×3), put in a 6-mL plastic vial and air-dried (room temperature 1.5 h). 5 mL of CytoScint-ES Liquid Scintillation Cocktail (MP Biomedicals) was added to each vial. After incubation overnight at room temperature, the vial was used for liquid scintillation counting with a LS 6500 Multi-Purpose Scintillation Counter. A standard curve was generated using [35S]GTPγS. The radioactive activity (Counts per minute) of the samples were converted to the GTPγS concentration. The GTPγS binding curves were fitted by the software GraphPad Prism using the following equation to calculate the apparent GTPγS binding rates (kapp): […]
in which “Y” is the concentration of GTPγS that bound to Gα protein at time “X” (minutes).

[3] = molecular target: WT Gαs (Homo sapiens, UniProt P63092); test: Adenylyl cyclase activity assay in membranes of GNAS KO HEK293 cells transfected with WT Gαs; design: expressed in transfected cells; host or cells: GNAS KO HEK293 cells (membranes); details: WT Gαs reintroduced by transient transfection
Sequence of WT Gαs (P63092 whole entry): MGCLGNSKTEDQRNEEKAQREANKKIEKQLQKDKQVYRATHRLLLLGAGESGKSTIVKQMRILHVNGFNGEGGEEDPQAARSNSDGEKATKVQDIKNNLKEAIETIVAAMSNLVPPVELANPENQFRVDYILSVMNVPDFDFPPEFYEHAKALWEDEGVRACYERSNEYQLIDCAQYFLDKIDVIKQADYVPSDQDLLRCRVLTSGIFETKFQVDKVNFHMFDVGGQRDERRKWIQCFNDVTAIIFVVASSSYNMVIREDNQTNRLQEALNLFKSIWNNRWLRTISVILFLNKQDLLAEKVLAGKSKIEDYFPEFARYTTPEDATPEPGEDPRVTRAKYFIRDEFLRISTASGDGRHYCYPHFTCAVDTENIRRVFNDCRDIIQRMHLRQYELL
From the text: To further assess the cellular specificity of GN13, we designed a GN13-resistant Gαs mutant based on structural analysis. […] We reasoned that mutating this serine residue to a bulky residue should create a drug-resistant Gαs mutant that blocks the GN13-Gαs interaction but would have little effect on adenylyl cyclase activation. […] By contrast, when the drug resistant mutant Gαs S275L was reintroduced into GNAS KO cells, the inhibitory effect of GN13 was abolished (FIG. 3I), providing further evidence that the observed pharmacological activity is due to GN13 binding to the switch II/α3 pocket in Gαs.
GN13 inhibition of Gαs proteins in HEK293 cell membranes (FIG. 17F and FIG. 18F).
a. Cell membrane preparation: HEK293cells, GNAS KO HEK293 cells were plated two day before transfection at a density of 1M cells per 10 cm plate. […] The protein concentrations were measured using BCA, and were normalized to 750 μg/mL. […] The cAMP concentrations were measured by the LANCE Ultra cAMP kit. […]
A cAMP standard curve was generated in the same plate using the 50 μM cAMP standard in the kit. […] 10 μL of each diluted sample was mixed with 5 μL of 4× Eu-cAMP tracer and 5 μL of 4× ULight-anti-cAMP in a white, opaque Optiplate-384 microplate, incubated for 1 hour at room temperature, and the time-resolved fluorescence resonance energy transfer (TR-FRET) signals were read on a Spark 20M plate reader. […]

inhibition of forskolin-mediated, Gαs-independent adenylyl cyclase activation [1]: did not inhibit
effect on the apparent rate of GTPγS binding (kapp) to Gαs [2]: increased
inhibition of isoproterenol-mediated cAMP production in cell membranes [3]: able to inhibit
Compound: CC[C@H](C)[C@@H]1NC(=O)[C@H](C)NC(=O)[C@H](Cc2ccc(O)cc2)NC(=O)[C@H](C(C)C)NC(=O)[C@H](CO)NC(=O)[C@H](CCC(=O)O)NC(=O)[C@H](Cc2ccccc2)NC(=O)[C@@H](Cc2ccc(O)cc2)NC(=O)CSC[C@@H](C(=O)NCC(N)=O)NC(=O)[C@H](CC(C)C)NC(=O)[C@H]([C@@H](C)O)NC(=O)CNC(=O)[C@H](Cc2c[nH]c3ccccc23)NC1=O [GN13] ({CH2CO}-[dY]FESVYAIWGTLCG-NH2; thioether N-13)
